Measurements as given in patent US6353119B1, “Preparation of 3-substituted-4-arylquinolin-2-one derivatives” (Bristol-Myers Squibb Company, priority 1999, dated 2002).

What was measured:
[1] = tested on: cloned mammalian (mSlo or hSlo) BK channels heterologously expressed in Xenopus oocytes; assay: BK-mediated outward current in Xenopus oocytes, two-electrode voltage clamp; format: cell-based, Xenopus oocyte; details: at 20 μM; IBTX-sensitive current; at least 5 oocytes
Method: The ability of compounds described in the present invention to open BK channels and increase whole-cell outward (K^+) BK-mediated currents was assessed under voltage-clamp conditions by determining their ability to increase cloned mammalian (mSlo or hSlo) BK-mediated outward current heterologously expressed in Xenopus oocytes [Butler, A., et al., Science, 261: 221-224 (1993); and Dworetzky, S. I., et al., Mol. Brain Res., 27: 189-193 (1994)]. The two BK constructs employed represent nearly structurally identical homologous proteins, and have proven to be pharmacologically identical in our tests. To isolate BK current from native (background, non-BK) current, the specific and potent BK channel-blocking toxin iberiotoxin (IBTX) [Galvez, A., et al., J. Biol. Chem., 265: 11083-11090 (1990)] was employed at a supramaximal concentration (50 nM). The relative contribution of BK channels current to total outward current was determined by subtraction of the current remaining in the presence of IBTX (non-BK current) from the current profiles obtained in all other experimental conditions (control, drug, and wash). […] All compounds were tested in at least 5 oocytes and are reported at the single concentration of 20 μM; the effect of the selected compounds of Formula I on BK current was expressed as the percent of control IBTX-sensitive current and is listed in Table 1. […]

[2] = tested on: ICP/BP responses elicited by stimulation of the cavernous nerve; assay: In vivo erectile function model, intracavernous pressure response to cavernous nerve stimulation; design: species or system rat; details: 0.1-1 mg/kg i.v.; anesthetized rats
Source text: The in vivo model on erectile function is described fully in the scientific literature (Rehman, J., Chenven, E., Brink, P. Peterson, B., Wolcott, B., Wen, Y. P., Melman, A., Christ, G.: Diminished neurogenic but not pharmacological erections in the 2- to 3-month experimentally diabetic F-344 rat. Am. J. Physiol. 272: H1960-H1971, 1997). Briefly, rats (250-600 g) were anesthetized using sodium pentobarbital, the abdomen opened and the cavernous nerve identified. A pressure catheter was placed in the right corpus cavernosum (crus) to measure intracavernous pressure (ICP). A second catheter was introduced into the carotid artery to measure blood pressure. Test compound (0.1, 0.3 and 1 mg/kg i.v.) or vehicle (PEG 400) was given via a catheter placed into the jugular vein.
Control intracavernous pressure responses were elicited by electrically stimulating the cavernous nerve via bipolar stimulating electrodes (20 Hz, 0.22 ms pulse width). Stimulus amplitude (0.2-20 mA) was adjusted to produce a submaximal intracavernous pressure response (typically 0.2 or 0.5 mA). A series of control intracavernous pressure responses were then obtained using a constant stimulus amplitude. Test compound or vehicle was then administered (200 μl i.v bolus) and the cavernous nerve was restimulated to evoke a cavernous pressure response at various times post-drug administration. […]

[3] = tested on: permanent MCAO focal stroke model; assay: Permanent focal ischemia, middle cerebral artery occlusion (MCAO) model; format: in vivo, spontaneously hypertensive rat; details: 0.003 mg/kg i.v. single bolus 2 hours after MCAO; infarct measured 24 hours after MCAO; vs vehicle-treated control
Source text: To determine the ability of these compounds to reduce cell loss resulting from neuronal ischemia, a standard rodent model of permanent focal ischemia, involving occlusion of the middle cerebral artery in the spontaneously hypertensive rat (middle cerebral artery occlusion (MCAO) model) was employed [Tamura, A., et al., Journal of Cerebral Blood Flow and Metabolism, Volume 1, 53-60, (1981)]. Selected compounds have been evaluated in the focal stroke model involving permanent MCAO in the spontaneously hypertensive rat. This procedure results in a reliably large neocortical infarct volume that is measured by means of vital dye exclusion in serial slices through the brain 24 hours after MCAO. In the present test, compounds were administered using an intravenous route of administration at 2 hours after occlusion.

| Structure (SMILES) | BK Current, percent increase over BK current in controls [1] | ICP/BP responses elicited by sub-maximal stimulation of the cavernous nerve [2] | reduction of cortical infarct volume [3] | melting point [°C] |
| --- | --- | --- | --- | --- |
| O=c1[nH]c2ccc(C(F)(F)F)cc2c(-c2cc(Cl)ccc2O)c1CCO [Example 4, 4-(5-Chloro-2-hydroxyphenyl)-3-(2-hydroxyethyl)-6-(trifluoromethy)-2(1H)-quinolinone] | ++ (++ = >200%) | produced an augmentation of the ICP/BP responses | – | – |
| COc1ccc(Cl)cc1-c1c(CCO)c(=O)[nH]c2ccc(C(F)(F)F)cc12 [Example 5, 4-(5-Chloro-2-methoxyphenyl)-3-(2-hydroxyethyl)-6-(trifluoromethyl)-2(1H)-quinolinone] | ++ (++ = >200%) | – | about 25% | 216 to 217 |
